Assay results as given in ChEMBL document CHEMBL3507680, “University of Dundee, Gates Library screen for HepG2 cell viability”.

Experiment: Human HepG2 cell viability assay in 384 well format
Type: toxicity, cell-based
Set-up: dose 125 nL, time 70.5 hour; concentration not given beside the values
Conditions: HepG2 cells, read-out: Inhibition

Compound | cytotoxicity at 70.5 h [%]
COCC[C@]1(O)CCN(C(=O)C2CCN(C3CCCC3)CC2)C[C@H]1C | -5.71
COCCOCCNC(=O)N1CCN(c2ccccc2C#N)CC1 | -2.61
COC(=O)C(C)Sc1nnnn1C1CCOCC1 (configuration not stated) | -5.79
Cc1cc(C(=O)N2CCCC2c2c(C)nn(C)c2C)no1 (configuration not stated) | -10.1
CC1CCc2[nH]c(=O)c(C(=O)N3CCc4ccccc4C3)cc2C1 (configuration not stated) | 0.747
COCCN(Cc1ccc(C)cc1)CC1CCOC1 (configuration not stated) | -5.9
CC(Cn1cccn1)NC(=O)NCCCN1CCc2ccccc2C1 (configuration not stated) | 14.2
COc1cc2c(c(OC)c1OC)CCN(CCn1nc(C)cc1C)CC2 | -6.93
c1ccc(-c2cc(CN3C[C@H]4CC[C@H]3C4)on2)cc1 | -4.67
CC(C)CN1CC[C@@H]2[C@@H]1CCN2S(=O)(=O)c1cn(C)cn1 | -10.9
c1csc(CN2CC3(CCN(Cc4ccsc4)C3)C2)n1 | 8.65
COCCC(=O)N1CCn2c(COCC3CC3)cnc2C1C (configuration not stated) | -0.0494
O=C(CN1CCNCC1)N1CC[C@@H](c2ccc3ccccc3c2)[C@H](O)C1 | -6.87
O=C(O)c1cc(-c2ccc3c(c2)OCO3)cc(S(=O)(=O)NC2CC2)c1 | -11.6
CC(=O)NC1CCCN(C(=O)Nc2cccnc2-n2cccn2)C1 (configuration not stated) | -6.08
O=C(O)Cc1nc2nccc(-c3ccc(F)cc3)n2n1 | 17.4
NC(=O)CN1CCCN(C(=O)Cc2ccc(F)cc2)CC1 | -13.3
N#Cc1ccc(S(=O)(=O)NC(=O)C2CC(c3ccccc3)=NO2)cc1 (configuration not stated) | -12.1
O=C(c1ccoc1)N1CC[C@@H]2O[C@@H](COCC3CCOCC3)CC[C@@H]21 | 16
CC(=O)c1c(F)cccc1N1CCC(Cc2cccnc2)CC1 | 9.22
Cc1nc(C2CCCNC2)cc(N2CCc3nc(N)sc3C2)n1 (configuration not stated) | 17.4
CCC(CC)C(=O)NCc1c(C)nn(C)c1N1CCCN(C)CC1 | 22.5
CC[C@H](N)Cn1nc(-c2cccs2)oc1=O | -26.2

Compound | cytotoxicity at 70.5 h [%]
CC1CN(S(=O)(=O)c2ccc(F)cc2)c2cccnc2O1 (configuration not stated) | 1.22
O=C(NCC1CCS(=O)(=O)C1)Nc1ccccn1 (configuration not stated) | 3.81
CC1CN(CC(=O)NCc2cccs2)CCN1c1nccs1 (configuration not stated) | -10.4
O=C(NCCNC(=O)C1CCCCC1)NCCn1cccc1 | -4.89
Cc1csc(CNC(=O)NCC(O)c2ccc(F)cc2)n1 (configuration not stated) | -12.5
COC(=O)c1ccc(C(=O)NCC(O)c2cccn2C)cc1 (configuration not stated) | 48.7
Cn1ccnc1C(O)c1ccccc1N1CCN(Cc2ccsc2)CC1 (configuration not stated) | -5.94
CCc1cnc(CNc2cccc3c2CCN(S(=O)(=O)CC)C3)o1 | -2.87
CCN(Cc1ccoc1)C(=O)c1cc(C)c(C)c(S(N)(=O)=O)c1 | -9.16
Cc1cnc(N2C[C@@H]3CCN(CC(=O)N(C)C)C(=O)[C@H]3C2)nc1 | 4.34
COCC(=O)N1CCC(c2cc(N(C)C)cc(C)n2)CC1 | 25.5
O=C(NCc1cc2n(n1)CCCNC2)C1(c2ccccc2)CCCCC1 | 0.103
Cc1nccn1-c1ccc(CN2CC3C[C@@H](O)CN3C[C@@H]2C)cc1 (some centres not stated) | -7.07
CC1CCN(C(=O)c2cnc(CC3CCCN(C)C3)cn2)CC1 (configuration not stated) | -9.3
Cn1cc(CC(=O)N2CCC(Nc3cccnn3)CC2)c2ccccc21 | -4.98
CCc1nc(CN(CC(N)=O)C(C)C)cs1 | 18.1
NC(=O)N1CCCC(C(=O)N2CCN(c3nsc4ccccc34)CC2)C1 (configuration not stated) | -3.95
Cc1cnn(CCNc2nc(C)cc(N(C)C)n2)c1 | 11.4
Cn1c(SCC2OCCc3ccccc32)n[nH]c1=O (configuration not stated) | -8.09
CN(C)C(=O)NC1COC2(CCN(Cc3ccc(N(C)C)cc3)CC2)C1 (configuration not stated) | -2.99
CCNC(=O)Nc1cccc(F)c1C(=O)NC1CCCC1 | -6.92
O=C(O)C1(Oc2ccccc2)CCN(c2ccncc2)CC1 | -2.23
N#Cc1ccc(N2CCCN(CC(=O)N3CCOCC3)CC2)cc1 | 21.1

Compound | cytotoxicity at 70.5 h [%]
COCCN1CCc2onc(C(c3ccccc3)c3ccccc3)c2C1 | -8.42
CCN1CCN(C(=O)C2CC(=O)N(c3cnn(C(C)C)c3)C2)CC1 (configuration not stated) | -1.53
O=C(c1ccncc1)N1CCc2[nH]nc(Nc3ccccc3)c2C1 | 21.7
O=C(Nc1ccc(-c2ccccc2)cn1)C1CCN(C(=O)C2CC2)CC1 | -1.82
O=C(c1cc[nH]c(=O)c1)N1CCn2c(nnc2-c2ccccc2)C1 | -4.86
COc1ccccc1C(=O)Nc1c(F)c(C(=O)NC2CCCC2)nn1C | -7.93
O=C(Cn1cc(C(=O)O)ccc1=O)Nc1ccc(F)cc1Cl | -23.3
Cn1nc(CN2CCCC2)c2c1CN(C(=O)c1cccnc1)CC2 | -2.33
CS(=O)(=O)CCCOc1cccc(-n2cccn2)c1 | 12.8
Cc1cc(CN(C)CC(c2cccs2)N2CCOCC2)on1 (configuration not stated) | -7.4
CCNC(=O)[C@@H]1C[C@@H](NC(=O)c2ccc(C#N)cc2)CN1CCCSC | 17.5
CNc1nnc(CCn2nc(C)c(Br)c2C)s1 | 19.6
Cc1cc(C)n(-c2ccc(C(=O)NCC(CO)Cc3cccs3)cc2)n1 (configuration not stated) | -8
CN1CCN(Cc2noc(-c3cc(-c4ccccc4F)n[nH]3)n2)CC1 | 17.5
CC(C)OCCNC1(c2ccc(Cl)cc2)CCOCC1 | -0.58
COCCCn1ccc(NS(=O)(=O)c2cc(F)c(C)cc2F)n1 | -12.2
CN(C)Cc1ccc(C2CCCCN2C(=O)c2cc(=O)[nH]c(=O)[nH]2)cc1 (configuration not stated) | -5.8
Cc1nn(C)c(C)c1C1CCCN1Cc1nc(N)c2ccccc2n1 (configuration not stated) | -2.07
CCS(=O)(=O)N1CCC2(CC1)CN(Cc1ccccn1)C(=O)CO2 | -11.1
Cc1csc(N2CCCN(C(=O)Cc3ccc(C)s3)CC2)n1 | 16.1
CC(NC(=O)Cc1cc2c(cc1Cl)OCCO2)c1ccncn1 (configuration not stated) | -2.12
CNC(=O)[C@@H](c1ccccc1)N1CCC[C@H]1C(=O)NCc1ccccn1 | -6.43
Cc1ccc(C(=O)N2C[C@@H](N3CCN(C)CC3)[C@H]3OCCC[C@H]32)cn1 | -11.9

Compound | cytotoxicity at 70.5 h [%]
CCN1CCN(C)C2(CCN(Cc3cccc(C)n3)CC2)C1=O | -9.88
Cc1cnc(C(=O)N(C)[C@@H]2CCC[C@@H](Oc3ccccc3)[C@@H]2O)cn1 | 16.9
O=C(CCc1ccsc1)N1CCC(C(=O)O)(c2ccccc2)CC1 | -0.12
Cc1ccc(C(=O)Nc2cc(C(C)C)n[nH]2)cn1 | 31.4
Cc1cc(O)nc(C2CCCN(CCO)C2)n1 (configuration not stated) | -1.84
Cc1nc(-c2ccccc2)sc1C(=O)NCCNc1ncccn1 | 1.41
CCC(=O)c1ccc(OCC(=O)N(C)C(C)c2ccon2)cc1 (configuration not stated) | -13.2
CN(C)CCNC(=O)c1cc(-c2cnc(N3CCCC3)nc2)cn1C | 21.5
CN(C)c1cc(C2CCCNC2)ccn1 (configuration not stated) | 4.83
O=C(Cc1cccnc1)N1CCC2(CCN(CC3CCCCC3)C2)CC1 | 7.82
c1ccc(N2CCC3(COCCN(Cc4cccs4)C3)C2)nc1 (configuration not stated) | -4.82
CSCCC(=O)N1CCC(Oc2cc(C)ccc2F)(C(=O)O)CC1 | -7.4
CC(NC(=O)N1CCN(c2ccccc2)CC1)c1nncn1C (configuration not stated) | -15.6
Cc1ccc(S(=O)(=O)N2C[C@H]3C[C@H](NC(=O)c4cscn4)[C@H]3C2)cc1 | 9.07
Cn1cc(CN2CCn3cc(CNC(=O)CC4CC4)nc3C2)cn1 | -7.17
COCCO[C@@H]1CCN(C(=O)c2ccc[nH]2)[C@H]1Cc1cnn(C)c1 | -7.64
Cc1cc(C)n(C2CCN(c3ncnc4c3CCNCC4)C2)n1 (configuration not stated) | -9.03
Cc1ncncc1C(=O)N1CCCC(Cc2nccs2)C1 (configuration not stated) | -4.31
CO[C@H]1[C@@H]2CC[C@H]1CN(c1nc(C)nc3ccsc13)C2 | 19.4
CC1CCN(S(=O)(=O)N2CCc3c(c(C(=O)O)nn3CC3CC3)C2)CC1 | 1.09
Cc1cc(NCc2ccc(S(N)(=O)=O)cc2)nc(C)n1 | -13.8
Cn1cccc(NC(=O)COc2ccc(Br)cc2)c1=O | 21.8
Cc1ccc(C(=O)N2CCN(c3ccnc4ccsc34)CC2)o1 | -12

Compound | cytotoxicity at 70.5 h [%]
N#Cc1ccc(N2CCC3(CC2)CC(N2CCOCC2)CO3)cc1 (configuration not stated) | -6.28
O=C(c1cn2cc(Cl)ccc2n1)N1CCC(CCn2cccn2)CC1 | 19.9
CCC1CCCN(S(=O)(=O)c2cnc3onc(C)c3c2)C1 (configuration not stated) | -4.44
CCC(CO)N(Cc1ccco1)C(=O)c1cccc(C)c1O (configuration not stated) | -0.632
O=C(NCc1ccccc1CO)Nc1ccc2c(c1)CCC2 | -1.72
O=C(NCCSC1CCCC1)c1c(F)cccc1F | -6.07
Oc1cccc(CN2CCN(c3nccc(CCC(F)(F)F)n3)CC2)c1 | -3.66
CC(C)COC(=O)N1[C@@H](c2ccco2)[C@@H](CO)C[C@]12CCCCNC2=O | -9.55
COCC1CN(Cc2csc(C)n2)Cc2nccn2C1 (configuration not stated) | 2.98
CC(C)=CCN1CCN(C(=O)c2cc(C)n[nH]2)[C@H]2CS(=O)(=O)C[C@H]21 | 0.726
CN(C)S(=O)(=O)N1CCC(c2nnc(C(F)(F)F)o2)CC1 | 30.8
O=C1COC2(CCN(Cc3ccoc3)CC2)CN1CCn1cccn1 | -2.81
O=C(C1CCOCC1)N1C[C@H]2CCC[C@@]2(COCc2ccccn2)C1 | -10.2
CSCC[C@@H](CO)Nc1ccc(-c2nc(C3CC3)no2)cn1 | -3.18
CCS(=O)(=O)c1ccc(N2CCC(NC(=O)c3cnn(C)c3)CC2)cc1 | -4.33
CC(=O)NCC1CCN(Cc2nc(C3CC3)no2)CC1 | -6.87
Cc1nc(C2(NCc3ccc(C#N)cc3F)CCCC2)no1 | -18.6
Cc1cc(C)nc(C2CCN(C(=O)c3cnc(N(C)C)nc3)C2)n1 (configuration not stated) | -4.6
Cc1nnc(CN2CCC(c3nc4cc(Cl)ccc4o3)CC2)n1C | -18.9
CCn1nc(NC(=O)Cn2ccc(C(C)=O)n2)c2ccccc21 | 26.9
